Test system: snails
Experiment: Insect control performance verification: cabbage leaves fed to snails
Format: in vivo
Conditions: leaves sprayed with 10 mg/mL suspension; 10 snails per group
Source text: Cabbage leaves each at a size of 5 cm×5 cm were divided into four groups with four cabbage leaves in each group. […] The four groups of leaves were respectively administered to four groups of snails with 10 snails in each group. The consumption rate by the snails for the untreated cabbage leaf group was almost 100%. The consumption rate by the snails for the cabbage leaves simply sprayed with the imidacloprid suspension was about 30%. […] The consumption rate by the snails for the cabbage leaves that were first sprayed with the suspension of the protein product of the present disclosure and then treated with the Vc aqueous solution or the fruit and vegetable detergent was increased to 80%.

Q: Which “consumption rate of cabbage leaves by the snails” value does the source give for O=[N+]([O-])NC1=NCCN1Cc1ccc(Cl)nc1 [imidacloprid] here?
A: about 30%
